Measured values from BindingDB's records for doi:10.1016/j.bmcl.2014.02.013 (Bristol-Myers Squibb, 2014).

Assay: Antagonist activity at CCR2 in human monocytes assessed as reduction of chemotaxis in presence of […] BSA

| Compound | IC50 |
| --- | --- |
| CC(C)N(C)[C@@H]1CC[C@H](N2CC[C@H](NC(=O)c3cccc(C(F)(F)F)c3)C2=O)[C@H](CS(C)(=O)=O)C1 | 2.6 nM |
| CCS(=O)(=O)C[C@@H]1C[C@H](N(C)C(C)C)CC[C@@H]1N1CC[C@H](NC(=O)c2cccc(C(F)(F)F)c2)C1=O | 0.6 nM |
| CC(C)N(C)[C@@H]1CC[C@H](N2CC[C@H](NC(=O)c3cccc(C(F)(F)F)c3)C2=O)[C@H](CS(=O)(=O)C(C)C)C1 | 0.2 nM |
| CC(C)N(C)[C@@H]1CC[C@H](N2CC[C@H](NC(=O)c3cccc(C(F)(F)F)c3)C2=O)[C@H](CS(=O)(=O)C(C)(C)C)C1 | 0.2 nM |
